Test results reported in ChEMBL document CHEMBL1131857, “Quinolizidinyl derivatives of 5,11-dihydro-6H-pyrido[2,3-b][1,4]benzodiazepin-6-one as ligands for muscarinic receptors” (Bioorg Med Chem Lett, 1999).

Tests used:
[1] = target: Muscarinic acetylcholine receptor M3 (Rattus norvegicus, UniProt P08483); assay: Displacement of [3H]methylscopolamine binding to muscarinic M3 receptor in submaxillary salivary glands of rats.; assay type: tissue-based, Salivary gland
[2] = target: T1, Muscarinic acetylcholine receptor M1 (Rattus norvegicus, UniProt P08482); assay: Displacement of [3H]pirenzepine binding to muscarinic M1 receptor in brain cortex of rat.; assay type: tissue-based
T1 sequence (P08482 whole entry): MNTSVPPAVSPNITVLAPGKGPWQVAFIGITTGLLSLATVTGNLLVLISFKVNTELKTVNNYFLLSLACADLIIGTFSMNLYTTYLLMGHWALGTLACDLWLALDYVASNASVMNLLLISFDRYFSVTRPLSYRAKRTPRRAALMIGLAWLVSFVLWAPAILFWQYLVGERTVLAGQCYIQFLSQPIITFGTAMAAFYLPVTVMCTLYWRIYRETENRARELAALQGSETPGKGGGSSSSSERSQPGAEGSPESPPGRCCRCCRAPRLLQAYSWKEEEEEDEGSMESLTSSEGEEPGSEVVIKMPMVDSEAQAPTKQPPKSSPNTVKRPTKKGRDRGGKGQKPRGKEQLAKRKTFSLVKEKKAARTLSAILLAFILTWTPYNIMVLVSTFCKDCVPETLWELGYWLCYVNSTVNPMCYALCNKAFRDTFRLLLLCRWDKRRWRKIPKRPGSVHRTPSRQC

[3] = target: T2, Muscarinic acetylcholine receptor M2 (Rattus norvegicus, UniProt P10980); assay: Displacement of [3H]methylscopolamine binding to muscarinic M2 receptor in rat heart.
T2 sequence (P10980 whole entry): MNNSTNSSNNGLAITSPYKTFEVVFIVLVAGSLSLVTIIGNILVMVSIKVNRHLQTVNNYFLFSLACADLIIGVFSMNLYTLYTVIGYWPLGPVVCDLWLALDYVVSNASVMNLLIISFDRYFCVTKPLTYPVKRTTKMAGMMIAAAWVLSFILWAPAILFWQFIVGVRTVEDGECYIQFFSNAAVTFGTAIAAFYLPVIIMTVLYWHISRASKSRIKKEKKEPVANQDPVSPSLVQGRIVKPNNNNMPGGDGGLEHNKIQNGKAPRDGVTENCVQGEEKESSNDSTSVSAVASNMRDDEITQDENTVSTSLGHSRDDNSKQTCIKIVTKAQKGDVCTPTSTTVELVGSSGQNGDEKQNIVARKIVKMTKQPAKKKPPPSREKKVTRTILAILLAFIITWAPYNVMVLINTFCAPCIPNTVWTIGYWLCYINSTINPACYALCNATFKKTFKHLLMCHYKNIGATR

Chain of Muscarinic acetylcholine receptor M3 (P08483 whole entry): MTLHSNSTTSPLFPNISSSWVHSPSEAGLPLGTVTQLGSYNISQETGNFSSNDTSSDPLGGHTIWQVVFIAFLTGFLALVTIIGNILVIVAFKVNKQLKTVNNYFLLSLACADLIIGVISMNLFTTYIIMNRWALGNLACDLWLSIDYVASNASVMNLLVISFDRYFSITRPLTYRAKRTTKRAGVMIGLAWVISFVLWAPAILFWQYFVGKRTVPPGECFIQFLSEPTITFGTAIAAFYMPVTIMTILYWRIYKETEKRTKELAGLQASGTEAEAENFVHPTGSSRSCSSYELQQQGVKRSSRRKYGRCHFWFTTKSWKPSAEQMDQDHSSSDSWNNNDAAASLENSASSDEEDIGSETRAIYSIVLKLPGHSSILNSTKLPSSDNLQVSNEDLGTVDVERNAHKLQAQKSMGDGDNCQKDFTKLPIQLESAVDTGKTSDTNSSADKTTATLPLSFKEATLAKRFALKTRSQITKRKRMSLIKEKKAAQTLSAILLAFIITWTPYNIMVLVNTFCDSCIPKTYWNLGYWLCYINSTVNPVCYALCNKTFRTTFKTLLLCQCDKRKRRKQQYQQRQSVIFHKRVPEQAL

Which IC50 [1] does the source give for O=C1Nc2cccnc2N(C(=O)CNCC2CCCN3CCCCC23)c2ccccc21 (centres undefined) here?
The IC50 was 800 nM.

And the IC50 [2]?
Its IC50 is 28 nM.

And the IC50 [3]?
The IC50 was 1000 nM.

What does the source list for O=C1Nc2ccccc2N(C(=O)CC2CCCN3CCCCC23)c2ncccc21 (centres undefined)?
IC50 [1]: > 10000 nM; IC50 [2]: 650 nM; IC50 [3]: 6800 nM

How did the IC50 [1] turn out when O=C1Nc2cccnc2N(C(=O)CSCC2CCCN3CCCCC23)c2ccccc21 (centres undefined) was run?
The IC50 was 760 nM.

And the IC50 [2]?
The IC50 was 10 nM.

And the IC50 [3]?
The IC50 was 760 nM.

O=C1Nc2cccnc2N(C(=O)C[C@@H]2CCCN3CCCCC23)c2ccccc21 (some centres undefined) was tested. Which IC50 [1] did it give?
Its IC50 is > 10000 nM.

And the IC50 [2]?
The IC50 was 110 nM.

And the IC50 [3]?
The IC50 was 6000 nM.

For O=C1Nc2cccnc2N(C(=O)C[C@H]2CCCN3CCCCC23)c2ccccc21 (some centres undefined), which IC50 [1] is on record?
Its IC50 is 3500 nM.

What about the IC50 [2] of the same molecule?
The IC50 was 40 nM.

What about the IC50 [3] of the same molecule?
Its IC50 is 1900 nM.

With O=C1Nc2cccnc2N(C(=S)CC2CCCN3CCCC[C@@H]23)c2ccccc21 (some centres undefined) as the molecule, how does the IC50 [1] read?
Its IC50 is 760 nM.

What about the IC50 [2] of the same molecule?
The IC50 was 10 nM.

What about the IC50 [3] of the same molecule?
Its IC50 is 760 nM.

With O=C1c2ccccc2-n2c(nc3cccnc32)CN1C[C@@H]1CCCN2CCCC[C@H]12 as the molecule, how does the IC50 [1] read?
Its IC50 is > 10000 nM.

What about the IC50 [2] of the same molecule?
Its IC50 is 1200 nM.

And the IC50 [3]?
Its IC50 is 12000 nM.

With Cc1cc(C(=O)c2ccccc2)ccc1NC(=O)CC1CCCN2CCCC[C@H]12 (some centres undefined) as the molecule, how does the IC50 [1] read?
Its IC50 is 1300 nM.

What about the IC50 [2] of the same molecule?
Its IC50 is 8 nM.

And the IC50 [3]?
Its IC50 is 2400 nM.
